Measured values reported in PMC9369295, “Key Residues Affecting Binding Affinity of Sirex noctilio Fabricius Odorant-Binding Protein (SnocOBP9) to Aggregation Pheromone” (International Journal of Molecular Sciences, 2022).
“Also recorded” adds a separate entry of the source. Where two headings read alike, the source gives them in different places.

Columns and labels:
[1] = molecular target: SnocOBP9WT (Sirex noctilio, UniProt A0A857N3E7); test: Fluorescence competitive binding assay with 1-NPN probe, wild-type protein
Chain of SnocOBP9WT (A0A857N3E7 entry or part of it): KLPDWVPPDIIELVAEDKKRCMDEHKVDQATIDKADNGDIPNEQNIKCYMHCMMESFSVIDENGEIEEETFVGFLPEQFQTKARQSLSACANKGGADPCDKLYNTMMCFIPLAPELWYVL

[2] = molecular target: SnocOBP9M54A (Sirex noctilio, UniProt A0A857N3E7, M75A); test: Fluorescence binding assay with 1-NPN probe, mutant M54A
Chain of SnocOBP9M54A (A0A857N3E7 entry or part of it M75A): as the sequence (A0A857N3E7 entry or part of it) above, with M54A counted along it
Source text: (§1) To measure the binding affinity of the ligand to recombinant SnocOBP9, 1-NPN was selected as a fluorescent probe. Eleven host volatiles ((−)-Limonene, (+)-Limonene, 3-Carene, Alpha-Pinene and Beta-Pinene, Camphene, Beta-Myrcene, Beta-Ocimene, Sabinene, Hexanal and Eucalyptol), three insect pheromones ((Z)-3-Decen-ol, (Z)-4-Decen-ol and (E, E)-2,4-decadienal) and six symbiotic fungal volatile (Cyclopentanone, Geraniol 2-Hexene, (−)-Globulol, Linalol and 1-(3-ethylphenyl)ethenone) compounds were selected to bind with recombinant SnocOBP9. A multi-scan Spectrum Molecular Device Spectra Max i3 Fluorescence Spectrophotometer (Thermo Scientific, Wilmington, DE, USA) was used to conduct fluorescence competitive binding assays with an excitation wavelength of 337 nm. The emission spectra were recorded between 390 and 500 nm. The parameters were selected such that the slit widths for both excitation and emission were 10 nm. […] Intensity values corresponding to the maximum fluorescence emission were plotted against the free ligand concentrations to calculate the dissociation constant. Assuming the activity of the protein was 100%, and the stoichiometric ratio between the protein and the ligand was 1:1 when saturated, the bound ligand was determined from the fluorescence intensity value. The K1-NPN value was calculated by linearizing the curve using Scatchard plots. […]

[3] = molecular target: SnocOBP9F57A (Sirex noctilio, UniProt A0A857N3E7, F78A); test: Fluorescence binding assay with 1-NPN probe, mutant F57A
Chain of SnocOBP9F57A (A0A857N3E7 entry or part of it F78A): as the sequence (A0A857N3E7 entry or part of it) above, with F57A counted along it
Source text: as §1

[4] = molecular target: SnocOBP9F71A (Sirex noctilio, UniProt A0A857N3E7, F92A); test: Fluorescence binding assay with 1-NPN probe, mutant F71A
Chain of SnocOBP9F71A (A0A857N3E7 entry or part of it F92A): as the sequence (A0A857N3E7 entry or part of it) above, with F71A counted along it
Source text: as §1

[5] = molecular target: SnocOBP9F74A (Sirex noctilio, UniProt A0A857N3E7, F95A); test: Fluorescence binding assay with 1-NPN probe, mutant F74A
Chain of SnocOBP9F74A (A0A857N3E7 entry or part of it F95A): as the sequence (A0A857N3E7 entry or part of it) above, with F74A counted along it
Source text: as §1

[6] = molecular target: SnocOBP9L116A (Sirex noctilio, UniProt A0A857N3E7, L137A); test: Fluorescence binding assay with 1-NPN probe, mutant L116A
Chain of SnocOBP9L116A (A0A857N3E7 entry or part of it L137A): as the sequence (A0A857N3E7 entry or part of it) above, with L116A counted along it
Source text: as §1

[7] = protein and 1-NPN both 2 μM, ligand titrated to 1–20 μM, read-out: IC50

`CCc1cccc(C(C)=O)c1` [1-(3-ethylphenyl)ethenone] was tested, and the IC50 [1, 7] was greater than 20 µM.

With `c1ccc(Nc2cccc3ccccc23)cc1` [1-NPN, N-phenyl-1-naphthylamine, reference compound] the Kd [1] was 6.87 ± 0.73 µM, the Kd [2] was 7.61 ± 0.92 µM and the Kd [3] was 4.49 ± 0.82 µM. It also gave a Kd [4] of 1.27 ± 2.42 µM, a Kd [5] of 18.4 ± 1.66 µM and a Kd [6] of 17.5 ± 2.41 µM.

`CC=CCCC` [2-Hexene] was tested, and the IC50 [1, 7] was greater than 20 µM.

Molecule `CC1=CCC2C(C1)C2(C)C` (stereo not shown) [3-Carene] has an IC50 [1, 7] greater than 20 µM.

Work on `C=C(C)[C@H]1CC=C(C)CC1` [(+)-Limonene] yielded an IC50 [1] of 6.09 ± 1.43 µM and a Ki [1] of 4.87 ± 0.94 µM.

`CCCCC/C=C/C=C/C=O` [(E, E)-2,4-Decadienal] showed an IC50 [1, 7] greater than 20 µM.

For `CCCCC/C=C\CCCO` [(Z)-4-Decen-ol], the IC50 [1, 7] was greater than 20 µM.

With `C[C@@H]1CC[C@@H]2[C@@H]1[C@H]1[C@@H](CC[C@@]2(C)O)C1(C)C` [(−)-Globulol] the IC50 [1, 7] was greater than 20 µM.

In the case of `C=C(C)[C@@H]1CC=C(C)CC1` [(−)-Limonene], the IC50 [1] is reported as 6.95 ± 0.61 µM and the Ki [1] is reported as 5.5 ± 0.49 µM.

In the case of `CC1=CCC2CC1C2(C)C` (stereo not drawn) [Alpha-Pinene], the IC50 [1] is reported as greater than 20 µM.

Work on `C=CC(=C)CCC=C(C)C` [Beta-Myrcene] yielded an IC50 [1, 7] greater than 20 µM.

In the case of `C=C/C(C)=C/CC=C(C)C` [Beta-Ocimene], the IC50 [1, 7] is reported as greater than 20 µM.

`C=C1CCC2CC1C2(C)C` (stereo not drawn) [Beta-Pinene] showed an IC50 [1] greater than 20 µM.

`C=C1C2CCC(C2)C1(C)C` (stereo not shown) [Camphene] showed an IC50 [1, 7] greater than 20 µM.

With `O=C1CCCC1` [Cyclopentanone] the IC50 [1, 7] was greater than 20 µM.

`CC12CCC(CC1)C(C)(C)O2` [Eucalyptol] gave an IC50 [1, 7] greater than 20 µM.

In the case of `CC(C)=CCC/C(C)=C/CO` [Geraniol], the IC50 [1] is reported as greater than 20 µM.

`CCCCCC=O` [Hexanal] gave an IC50 [1] greater than 20 µM.

`C=CC(C)(O)CCC=C(C)C` (stereo not shown) [Linalool] showed an IC50 [1] greater than 20 µM.

`C=C1CCC2(C(C)C)CC12` (stereo not shown) [Sabinene] showed an IC50 [1, 7] greater than 20 µM.

`CCCCCC/C=C\CCO` [Z3D, (Z)-3-decen-ol] was tested, and the IC50 [1, 7] was 1.92 ± 0.14 µM, the Ki ([1]; protein and 1-NPN both 2 μM, ligand titrated to 1–20 μM, read-out: Ki) was 1.53 ± 0.09 µM and the “binding affinity (fluorescence competitive assay)” value (“binding affinity” below) ([2]; mutant MET54 to ALA, Ki could not be calculated) was “no binding affinity; also recorded: never decreased below 50%”. For the same molecule, the Ki [3] was 5.61 ± 0.5 µM, the “binding affinity” value ([4]; mutant PHE71 to ALA, Ki could not be calculated) was “no binding affinity; also recorded: never decreased below 50%” and the “binding affinity” value ([5]; mutant PHE74 to ALA, Ki could not be calculated) was “no binding affinity; also recorded: never decreased below 50%”. For the same molecule, the “binding affinity” value ([6]; mutant LEU116 to ALA, Ki could not be calculated) was “no binding affinity; also recorded: never decreased below 50%”.
